One experiment has as its target T1, Lin28B CSD+ZKD (Homo sapiens, UniProt Q6ZN17).
T1 construct: Lin28B CSD+ZKD (aa7-204); His-tag; made in house; host or cells: Escherichia coli BL21
T1 sequence (Q6ZN17 7-204): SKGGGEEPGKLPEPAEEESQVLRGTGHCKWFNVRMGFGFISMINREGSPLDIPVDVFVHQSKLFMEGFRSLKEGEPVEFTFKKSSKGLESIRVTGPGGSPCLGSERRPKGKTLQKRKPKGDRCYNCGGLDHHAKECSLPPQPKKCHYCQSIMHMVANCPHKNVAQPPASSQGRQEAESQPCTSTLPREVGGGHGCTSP
Put plainly: Fluorescence polarization (FP) assay, Lin28 CSD+ZKD with FAM-labeled Let-7 probe. To be noted: 20 uM compound; for inhibition at 20 µM: read-out: inhibition of FP signals. In kind it is binding. From the text:
ZINC compounds were purchased from Enamine (Kyiv, Ukraine), Life Chemicals Ltd. (Kyiv, Ukraine), or Princeton Biomolecular Research (Princeton, NJ, USA) with >90% purity. Upon receiving the compounds, the molecular masses were validated by LC/MS/MS. His-tagged human Lin28B ZKD (aa110-174), Lin28B CSD+ZKD (aa7-204), and Lin28A ZKD (aa121-187) were expressed in Escherichia coli BL21 cells and purified by immobilized metal ion affinity chromatography (IMAC) with nickel nitrilotriacetic acid (NiNTA) resin and size exclusion chromatography (s75 10/300 GL) as we have previously reported.
The fluorescein amidites (FAM)-tagged Let-7 probe with the sequence of […] was purchased from Integrated DNA Technologies (IDT). The probe at the concentrations ranging from 1 nM to 50 uM was incubated with Lin28B (ZKD) or Lin28 (CSD+ZKD) to a final volume of 30 uL at room temperature for 20 min. To read the fluorescence, a TECAN 500 machine was used. Fluorescence polarization was calculated using the following equation: P=Fparrallel−Fperpendicular/Fparrallel+Fperpendicular where P is the fluorescence polarization reading, F parallel is the fluorescence intensity acquired from the parallel excitation plane, and F perpendicular is the fluorescence intensity acquired from the perpendicular direction of the excitation plane. The total fluorescence intensity is estimated using the following equation: F=Fparallel+2Fperpendicular
All the raw FP signal data from the TECAN 500 FP results were analyzed using Prism 8.0 (GraphPad, San Diego, CA, USA); normalized curves were plotted and IC50 values were estimated. All FP data were repeated three to five times.
To test the predicted compounds by CADD, we established an FP assay using both Lin28B ZKD and Lin28B CSD+ZKD to be incubated with a FAM-labeled Let-7 oligo containing the GGAG motif. To validate that the signals obtained from FP assays reflect the interaction between Lin28 and Let-7, we have tested: (1) 1 nM–50 uM FAM-labeled Let-7 probes with 10 uM Lin28 proteins and observed a dose-dependent reduction of FP signal; (2) 1 nM FAM labeled Let-7 probes with 1 nM–50 uM Lin28 proteins and observed a dose-dependent increase of FP signal; (3) 1 nM–50 uM doses of non-labeled Let-7 oligo to be incubated with 1 nM FAM probe and 10 uM Lin28 proteins, and observed a dose-dependent reduction of FP signal (Figure 2A,B).
We then screened all 163 molecules predicted by the CADD pipeline by using the FP assays with 10 uM of Lin28B ZKD protein and 1 nM of FAM-labeled Let-7 probe. Compounds Li71 and 1632 were also included and served as positive controls. We used 60% inhibition of FP signals by 20 uM of the tested compounds as the cut-off and found 15 active compounds achieving a hit rate of 9% (15/163) (Figure 2C left). […]
On the technique in general: Fluorescence polarisation rises when a labelled molecule tumbles more slowly, as on binding a larger partner.

In a further experiment the target is T2, Lin28B ZKD (Homo sapiens, UniProt Q6ZN17).
T2 construct: His-tagged human Lin28B ZKD (aa110-174); His-tag; made in house; host or cells: Escherichia coli BL21
T2 sequence (Q6ZN17 110-174): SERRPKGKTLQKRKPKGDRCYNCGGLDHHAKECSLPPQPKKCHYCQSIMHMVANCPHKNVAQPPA
The experiment can be described thus: Bio-layer interferometry (BLI) with Avi-tagged Lin28B ZKD. In kind it is binding. To be noted: for BLI binding to Lin28 ZKD: up to 100 µM. The protocol:
BLI assays were performed as we previously reported to quantify the direct and reversible interactions between small molecules and Lin28B ZKD by using OctetRED (ForteBio, Bohemia, NY, USA). Lin28B was thus expressed with His-tag and a biotinylated AviTag sequence ([…]) at its N-terminus in Escherichia coli BL21 cells. Purified Lin28B ZKD (50 ug/mL) was bound to the super-streptavidin sensors for 1 h at room temperature. Sensors were next blocked with biocytin, washed, and then dipped into wells containing increasing concentrations of the tested inhibitors in assay buffer (20 mM N-2-hydroxyethylpiperazine-N0-2-ethanesulfonic acid (HEPES), 150 mM NaCl, 500 uM tris(2-carboxyethyl) phosphine (TCEP), and 1% dimethylsulfoxide (DMSO)). Association for 200 s and dissociation in assay buffer for 100 s were recorded for each well. Data analysis was done using the OctetRED software (ForteBio, Bohemia, NY, USA).
Figure 3 Lin28 inhibitors block the interaction between Lin28B ZKD and Let-7. (A) EMSA used 10 nM of IR800DyeCWN-labeled let-7 probe (lane 1), 0.5 uM Lin28B ZKD protein with 10 nM of labeled Let-7 probe (lane 2), or Lin28B ZKD, labeled Let-7 probe and 100× non-labelled competitor probe (lane 3). EMSA used Lin28B ZKD, labeled Let-7 probe, and 100–1200 uM of indicated compounds (lanes 4–10). (B) FP assays were performed by using 10 uM of Lin28B ZKD and 1 nM of FAM-labeled Let-7 probe and 1 nM–1000 uM of compounds. (C) Bio-layer interferometry (BLI) assays were performed using 0–25 uM of Ln115 with Avi-tagged Lin28B ZKD protein. (D) Chemical structures of the three lead compounds were shown.
To validate that these molecules indeed directly bind to the ZKD domain of Lin28 in a reversible and dose-dependent manner, we used the biolayer interferometry (BLI) assay. Biotinylated Avi-tagged Lin28 ZKD was immobilized onto streptavidin biosensors. The sensor plates were then dipped in successive wells containing increasing concentrations of Ln7, Ln 15, or Ln115. […]
(In general: In BLI a coated tip is dipped into the sample, and binding shifts an interference pattern.)

`CCOc1cccc2c1N[C@@H](c1ccc(C(=O)O)cc1)[C@H]1CC=C[C@@H]21` [Li71, reference compound]: the “inhibition of FP signals” value against Lin28B CSD+ZKD was ~ 30%.

For the compound `O=c1[nH]c(Nc2ccccc2O)cs1` [Ln15], the inhibition at 20 µM at Lin28B CSD+ZKD was roughly 50%. In addition, at Lin28B ZKD, the “BLI binding to Lin28 ZKD” value is reported as “non-specific binding to the sensors”.

As to `CCc1cc(=O)[nH]c(Nc2cc(Cl)ccc2O)n1` [Ln7], on Lin28B CSD+ZKD, the inhibition at 20 µM is roughly 50%. Further, on Lin28B ZKD, the “BLI binding to Lin28 ZKD” value is on record as “did not show any binding”.

Take `O=c1cccc(-c2nc3cc(F)c(O)cc3c(=O)[nH]2)[nH]1` [Ln115]: the inhibition at 20 µM at Lin28B CSD+ZKD was roughly 20%. The Kd on Lin28B ZKD (0–25 uM Ln115, Avi-tagged Lin28B ZKD, read-out: estimated KD (BLI)) was 60 ± 4 µM.

In general, inhibition refers to the drop in the measured response relative to a control, in per cent. In general, Kd refers to the free concentration of one partner at which half of the binding sites on the other are occupied at equilibrium, for simple one-to-one binding.

The record behind these values is paper PMC9688808, “Discovery of Novel Lin28 Inhibitors to Suppress Cancer Cell Stemness” (Cancers, 2022).
